Assay results as given in US10131652B2, “Pyrimidinyloxy benzene derivatives as herbicides” (E. I. DU PONT DE NEMOURS AND COMPANY, priority 2014, dated 2018).
Read-outs that look alike come from different tables or passages of the source.

Assays:
Format in all cases: in vivo
[1] = tested on: barnyardgrass (Echinochloa crus-galli); experiment: Test C flooded paddy test plant response; conditions: Flood, 250 g ai/ha, scale of 0 to 100 where 0 is no effect and 100 is complete control, 13 to 15 days
Procedure, shortened: (§1)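 Water-applied treatment: compounds go directly into floodwater standing 3 cm over the soil of pots holding 2-leaf-stage plants. Depth is kept constant; plants stay in a greenhouse 13 to 15 days before visual comparison with controls on a 0–100 scale.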

[2] = tested on: ducksalad (Heteranthera limosa); experiment: Test C flooded paddy test plant response; conditions: Flood, 250 g ai/ha, scale of 0 to 100 where 0 is no effect and 100 is complete control, 13 to 15 days
Procedure, shortened: as §1

rice (Oryza sativa) = experiment: Test C flooded paddy test plant response; conditions: Flood, 250 g ai/ha, scale of 0 to 100 where 0 is no effect and 100 is complete control, 13 to 15 days
Procedure, shortened: as §1

[3] = tested on: small-flower umbrella sedge (Cyperus difformis); experiment: Test C flooded paddy test plant response; conditions: Flood, 250 g ai/ha, scale of 0 to 100 where 0 is no effect and 100 is complete control, 13 to 15 days
Procedure, shortened: as §1

[4] = tested on: barnyardgrass (Echinochloa crus-galli); experiment: Test B pre-/postemergence plant response; conditions: for pest or weed control at 1000 g/ha: Echinochloa crus-galli, 240 h, 1000 g ai/ha, read-out: Plant response rating, Barnyardgrass; for pest or weed control at 1000 g/ha / Barnyardgrass plant response rating: 0 to 100 scale (0 no effect, 100 complete control)
Procedure, shortened: (§2)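 Scoring used a 0–100 scale (100 = complete control) by visual comparison with untreated plants after approximately 10 days in the greenhouse. Compounds, in surfactant-containing non-phytotoxic solvent, were sprayed onto soil at planting or onto 2–10 cm seedlings.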

[5] = tested on: wheat (Triticum aestivum); experiment: Test B pre-/postemergence plant response; conditions: for plant injury at 1000 g/ha: Triticum aestivum, 240 h, 1000 g ai/ha, read-out: Plant response rating, Wheat; for plant injury at 1000 g/ha / Wheat plant response rating: 0 to 100 scale (0 no effect, 100 complete control)
Procedure, shortened: as §2

[6] = tested on: velvetleaf (Abutilon theophrasti); experiment: Test B pre-/postemergence plant response; conditions: for pest or weed control at 1000 g/ha: Abutilon theophrasti, 240 h, 1000 g ai/ha, read-out: Plant response rating, Velvetleaf; for pest or weed control at 1000 g/ha / Velvetleaf plant response rating: 0 to 100 scale (0 no effect, 100 complete control)
Procedure, shortened: as §2

[7] = tested on: large (Lg) crabgrass (Digitaria sanguinalis); experiment: Test B pre-/postemergence plant response; conditions: for pest or weed control at 1000 g/ha: Digitaria sanguinalis, 240 h, 1000 g ai/ha, read-out: Plant response rating, Crabgrass, Large; for pest or weed control at 1000 g/ha / Crabgrass, Large plant response rating: 0 to 100 scale (0 no effect, 100 complete control)
Procedure, shortened: as §2

[8] = tested on: morningglory (Ipomoea spp.); experiment: Test B pre-/postemergence plant response; conditions: for pest or weed control at 1000 g/ha: Ipomoea, 240 h, 1000 g ai/ha, read-out: Plant response rating, Morningglory; for pest or weed control at 1000 g/ha / Morningglory plant response rating: 0 to 100 scale (0 no effect, 100 complete control)
Procedure, shortened: as §2

[9] = tested on: pigweed (Amaranthus retroflexus); experiment: Test B pre-/postemergence plant response; conditions: for pest or weed control at 1000 g/ha: Amaranthus retroflexus, 240 h, 1000 g ai/ha, read-out: Plant response rating, Pigweed; for pest or weed control at 1000 g/ha / Pigweed plant response rating: 0 to 100 scale (0 no effect, 100 complete control)
Procedure, shortened: as §2

[10] = tested on: giant foxtail (Setaria faberii); experiment: Test B pre-/postemergence plant response; conditions: for pest or weed control at 1000 g/ha: Setaria faberi, 240 h, 1000 g ai/ha, read-out: Plant response rating, Foxtail, Giant; for pest or weed control at 1000 g/ha / Foxtail, Giant plant response rating: 0 to 100 scale (0 no effect, 100 complete control)
Procedure, shortened: as §2

corn (Zea mays) = experiment: Test B pre-/postemergence plant response; conditions: for Corn plant response rating (crop injury, 0 = no effect, 100 = complete kill) at 1000 g/ha: Zea mays, 240 h, 1000 g ai/ha; for Corn plant response rating (crop injury, 0 = no effect, 100 = complete kill) at 1000 g/ha / Corn plant response rating: 0 to 100 scale (0 no effect, 100 complete control)
Procedure, shortened: as §2

[11] = 125 g ai/ha, postemergence, 0 to 100 scale, 0 no effect, 100 complete control
[12] = 500 g ai/ha, postemergence, 0 to 100 scale, 0 no effect, 100 complete control
[13] = Preemergence, 500 g ai/ha, 0 to 100 scale where 0 is no effect and 100 is complete control

Clc1cnc(Oc2ccccc2-c2cc(Br)no2)nc1 [Compound 12, 2-[2-(3-bromo-5-isoxazolyl)phenoxy]-5-chloropyrimidine] gave a pest or weed control at 250 g/ha ([1]; Echinochloa crus-galli, read-out: Barnyardgrass plant response rating) of 10%, a pest or weed control at 250 g/ha ([2]; Heteranthera limosa, read-out: Ducksalad plant response rating) of 40% and a plant injury at 250 g/ha (rice (Oryza sativa); Oryza sativa, read-out: Rice plant response rating) of 0%. For the same molecule, the pest or weed control at 250 g/ha ([3]; Cyperus difformis, read-out: Sedge, Umbrella plant response rating) was 0%, the pest or weed control at 1000 g/ha ([4]; post-emergence, Postemergence) was 40% and the pest or weed control at 1000 g/ha ([4]; pre-emergence, Preemergence) was 20%. The plant injury at 1000 g/ha ([5]; post-emergence, Postemergence) was 10%, the plant injury at 1000 g/ha ([5]; pre-emergence, Preemergence) was 0% and the pest or weed control at 1000 g/ha ([6]; post-emergence, Postemergence) was 90%. It also gave a pest or weed control at 1000 g/ha ([6]; pre-emergence, Preemergence) of 70%, a pest or weed control at 1000 g/ha ([7]; post-emergence, Postemergence) of 30% and a pest or weed control at 1000 g/ha ([7]; pre-emergence, Preemergence) of 80%. The pest or weed control at 1000 g/ha ([8]; post-emergence, Postemergence) was 30%, the pest or weed control at 1000 g/ha ([8]; pre-emergence, Preemergence) was 0% and the pest or weed control at 1000 g/ha ([9]; post-emergence, Postemergence) was 100%. It also gave a pest or weed control at 1000 g/ha ([9]; pre-emergence, Preemergence) of 90%, a pest or weed control at 1000 g/ha ([10]; post-emergence, Postemergence) of 40% and a pest or weed control at 1000 g/ha ([10]; pre-emergence, Preemergence) of 90%. The Corn plant response rating (crop injury, 0 = no effect, 100 = complete kill) at 1000 g/ha (corn (Zea mays); post-emergence, Postemergence) was 0% and the Corn plant response rating (crop injury, 0 = no effect, 100 = complete kill) at 1000 g/ha (corn (Zea mays); pre-emergence, Preemergence) was 0%.
For Clc1ccc(-c2c(I)cccc2Oc2ncc(Cl)cn2)nc1 [Compound 205], the “Barnyardgrass plant response rating” value [1] was 0, the “Ducksalad plant response rating” value [2] was 0 and the “Rice plant response rating” value (rice (Oryza sativa)) was 0. For the same molecule, the “Sedge, Umbrella plant response rating” value [3] was 0, the “Plant response rating, Barnyardgrass” value [4, 11] was 0 and the “Plant response rating, Barnyardgrass” value [4, 12] was 10. For the same molecule, the “Barnyardgrass plant response rating” value ([4]; Preemergence, 125 g ai/ha) was 0, the “Plant response rating, Barnyardgrass” value [4, 13] was 10 and the “Plant response rating, Wheat” value [5, 11] was 0. For the same molecule, the “Plant response rating, Wheat” value [5, 12] was 0, the “Wheat plant response rating” value ([5]; Preemergence, 125 g ai/ha) was 0 and the “Plant response rating, Wheat” value [5, 13] was 0. For the same molecule, the “Plant response rating, Velvetleaf” value [6, 11] was 0, the “Plant response rating, Velvetleaf” value [6, 12] was 10 and the “Velvetleaf plant response rating” value ([6]; Preemergence, 125 g ai/ha) was 0. For the same molecule, the “Plant response rating, Velvetleaf” value [6, 13] was 0, the “Plant response rating, Crabgrass, Large” value [7, 11] was 10 and the “Plant response rating, Crabgrass, Large” value [7, 12] was 20. For the same molecule, the “Crabgrass, Large plant response rating” value ([7]; Preemergence, 125 g ai/ha) was 30, the “Plant response rating, Crabgrass, Large” value [7, 13] was 70 and the “Plant response rating, Morningglory” value [8, 11] was 0. For the same molecule, the “Plant response rating, Morningglory” value [8, 12] was 10, the “Morningglory plant response rating” value ([8]; Preemergence, 125 g ai/ha) was 0 and the “Plant response rating, Morningglory” value [8, 13] was 0. The “Plant response rating, Pigweed” value [9, 11] was 60, the “Plant response rating, Pigweed” value [9, 12] was 90 and the “Pigweed plant response rating” value ([9]; Preemergence, 125 g ai/ha) was 10. The “Plant response rating, Pigweed” value [9, 13] was 90, the “Plant response rating, Foxtail, Giant” value [10, 11] was 0 and the “Plant response rating, Foxtail, Giant” value [10, 12] was 20. The “Foxtail, Giant plant response rating” value ([10]; Preemergence, 125 g ai/ha) was 20, the “Plant response rating, Foxtail, Giant” value [10, 13] was 70 and the “Plant response rating, Corn” value (corn (Zea mays); [11]) was 0. The “Plant response rating, Corn” value (corn (Zea mays); [12]) was 10, the “Corn plant response rating” value (corn (Zea mays); Preemergence, 125 g ai/ha) was 0 and the “Plant response rating, Corn” value (corn (Zea mays); [13]) was 0.
In the case of N#Cc1cccc(Oc2ncc(F)cn2)c1-c1ccc(Cl)cn1 [Compound 207], the “Barnyardgrass plant response rating” value [1] is reported as 0, the “Ducksalad plant response rating” value [2] is reported as 30 and the “Rice plant response rating” value (rice (Oryza sativa)) is reported as 0. The “Sedge, Umbrella plant response rating” value [3] was 30, the “Plant response rating, Barnyardgrass” value [4, 11] was 0 and the “Plant response rating, Barnyardgrass” value [4, 12] was 70. For the same molecule, the “Barnyardgrass plant response rating” value ([4]; Preemergence, 125 g ai/ha) was 10, the “Plant response rating, Barnyardgrass” value [4, 13] was 90 and the “Plant response rating, Wheat” value [5, 11] was 0. For the same molecule, the “Plant response rating, Wheat” value [5, 12] was 0, the “Wheat plant response rating” value ([5]; Preemergence, 125 g ai/ha) was 0 and the “Plant response rating, Wheat” value [5, 13] was 0. The “Plant response rating, Velvetleaf” value [6, 11] was 10, the “Plant response rating, Velvetleaf” value [6, 12] was 60 and the “Velvetleaf plant response rating” value ([6]; Preemergence, 125 g ai/ha) was 0. For the same molecule, the “Plant response rating, Velvetleaf” value [6, 13] was 30, the “Plant response rating, Crabgrass, Large” value [7, 11] was 0 and the “Plant response rating, Crabgrass, Large” value [7, 12] was 30. For the same molecule, the “Crabgrass, Large plant response rating” value ([7]; Preemergence, 125 g ai/ha) was 100, the “Plant response rating, Crabgrass, Large” value [7, 13] was 100 and the “Plant response rating, Morningglory” value [8, 11] was 10. The “Plant response rating, Morningglory” value [8, 12] was 30, the “Morningglory plant response rating” value ([8]; Preemergence, 125 g ai/ha) was 0 and the “Plant response rating, Morningglory” value [8, 13] was 30. The “Plant response rating, Pigweed” value [9, 11] was 70, the “Plant response rating, Pigweed” value [9, 12] was 100 and the “Pigweed plant response rating” value ([9]; Preemergence, 125 g ai/ha) was 90. The “Plant response rating, Pigweed” value [9, 13] was 100, the “Plant response rating, Foxtail, Giant” value [10, 11] was 0 and the “Plant response rating, Foxtail, Giant” value [10, 12] was 30. For the same molecule, the “Foxtail, Giant plant response rating” value ([10]; Preemergence, 125 g ai/ha) was 70, the “Plant response rating, Foxtail, Giant” value [10, 13] was 100 and the “Plant response rating, Corn” value (corn (Zea mays); [11]) was 0. The “Plant response rating, Corn” value (corn (Zea mays); [12]) was 0, the “Corn plant response rating” value (corn (Zea mays); Preemergence, 125 g ai/ha) was 0 and the “Plant response rating, Corn” value (corn (Zea mays); [13]) was 0.
